Reference: patent US10781224B2, “Bis(oxymethyl)phosphinic acid and biogenic metal salts thereof as regulators of plant growth and development” (priority 2016, dated 2020)

System: corn (Krasnodar 385 MV variety)
Assay: Corn seed treatment with BHMPA salts: germinating power
Format: in vivo
Summary of the method: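 Seeds (50 per Petri dish on two layers of filter paper) soaked 1 h in BHMPA or its Ca, Mg, Na, Co, Mn, Cu or Zn salts at 1·10^−6-1·10^−12%, with water controls. Germination energy read on day 4, germination on day 8 (wheat) or day 7 (rice, corn), as % means of four replicates. Germinating power taken as root and sprout length plus wet and dry mass per 100 seedlings.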

[1] = corn seeds, solution concentration 1 · 10^−6%, zinc salt of BHMPA
[2] = corn seeds, solution concentration 1 · 10^−7%, zinc salt of BHMPA
[3] = corn seeds, solution concentration 1 · 10^−8%, zinc salt of BHMPA
[4] = corn seeds, solution concentration 1 · 10^−9%, zinc salt of BHMPA
[5] = corn seeds, solution concentration 1 · 10^−10%, zinc salt of BHMPA
[6] = corn seeds, solution concentration 1 · 10^−11%, zinc salt of BHMPA
[7] = corn seeds, solution concentration 1 · 10^−12%, zinc salt of BHMPA

How did the “optimum concentration for treating corn seeds before sowing” value (corn) turn out when `O=P([O-])(CO)CO.O=P([O-])(CO)CO.[Zn+2]` [Zn-salt, Zinc BHMPA Salt] was run?
Its value is 1·10^−8%.

And the “Length, root” value [1]?
Its value is 5.3 cm.

What about the “Length, root, + % to control” value [1] of the same molecule?
The value was 13%.

What about the “Length, sprout” value [1] of the same molecule?
Its value is 3.4 cm.

And the “Length, sprout, + % to control” value [1]?
The value was 3%.

What about the “Mass, dry, root” value [1] of the same molecule?
Its value is 1.17 g/100 plantlings.

And the “Mass, dry, root, + % to control” value [1]?
Its value is 12.5%.

What about the “Mass, dry, sprout” value [1] of the same molecule?
The value was 0.97 g/100 plantlings.

What about the “Mass, dry, sprout, + % to control” value [1] of the same molecule?
The value was 13%.

What about the “Mass, wet, root” value [1] of the same molecule?
Its value is 6.98 g/100 plantlings.

And the “Mass, wet, root, + % to control” value [1]?
The value was 8.5%.

And the “Mass, wet, sprout” value [1]?
The value was 5.99 g/100 plantlings.

And the “Mass, wet, sprout, + % to control” value [1]?
The value was 5%.

And the “Length, root” value [2]?
The value was 5.6 cm.

What about the “Length, root, + % to control” value [2] of the same molecule?
Its value is 19%.

And the “Length, sprout” value [2]?
The value was 3.5 cm.

And the “Length, sprout, + % to control” value [2]?
Its value is 6%.

And the “Mass, dry, root” value [2]?
Its value is 1.30 g/100 plantlings.

What about the “Mass, dry, root, + % to control” value [2] of the same molecule?
Its value is 25%.

And the “Mass, dry, sprout” value [2]?
The value was 1.10 g/100 plantlings.

What about the “Mass, dry, sprout, + % to control” value [2] of the same molecule?
The value was 28%.

What about the “Mass, wet, root” value [2] of the same molecule?
Its value is 7.46 g/100 plantlings.

And the “Mass, wet, root, + % to control” value [2]?
Its value is 16%.

And the “Mass, wet, sprout” value [2]?
The value was 7.03 g/100 plantlings.

What about the “Mass, wet, sprout, + % to control” value [2] of the same molecule?
The value was 24%.

What about the “Length, root” value [3] of the same molecule?
Its value is 5.9 cm.

What about the “Length, root, + % to control” value [3] of the same molecule?
The value was 25.5%.

What about the “Length, sprout” value [3] of the same molecule?
Its value is 4.0 cm.

And the “Mass, dry, root” value [3]?
Its value is 1.36 g/100 plantlings.

And the “Mass, dry, sprout” value [3]?
The value was 1.13 g/100 plantlings.

What about the “Mass, wet, root” value [3] of the same molecule?
The value was 8.18 g/100 plantlings.

And the “Mass, wet, sprout” value [3]?
Its value is 7.82 g/100 plantlings.

And the “Length, root” value [4]?
The value was 5.8 cm.

And the “Length, root, + % to control” value [4]?
Its value is 23%.

What about the “Length, sprout” value [4] of the same molecule?
The value was 3.8 cm.

What about the “Length, sprout, + % to control” value [4] of the same molecule?
Its value is 15%.

And the “Mass, dry, root” value [4]?
The value was 1.19 g/100 plantlings.

And the “Mass, dry, root, + % to control” value [4]?
Its value is 14%.

And the “Mass, dry, sprout” value [4]?
Its value is 1.06 g/100 plantlings.

What about the “Mass, dry, sprout, + % to control” value [4] of the same molecule?
Its value is 23%.

And the “Mass, wet, root” value [4]?
The value was 7.39 g/100 plantlings.

And the “Mass, wet, root, + % to control” value [4]?
Its value is 15%.

What about the “Mass, wet, sprout” value [4] of the same molecule?
Its value is 6.99 g/100 plantlings.

And the “Mass, wet, sprout, + % to control” value [4]?
Its value is 23%.

And the “Length, root” value [5]?
Its value is 5.5 cm.

What about the “Length, root, + % to control” value [5] of the same molecule?
The value was 15%.

And the “Length, sprout” value [5]?
The value was 3.7 cm.

And the “Length, sprout, + % to control” value [5]?
Its value is 12%.

And the “Mass, dry, root” value [5]?
The value was 1.13 g/100 plantlings.

What about the “Mass, dry, root, + % to control” value [5] of the same molecule?
The value was 9%.

And the “Mass, dry, sprout” value [5]?
Its value is 1.00 g/100 plantlings.

And the “Mass, dry, sprout, + % to control” value [5]?
The value was 16%.

What about the “Mass, wet, root” value [5] of the same molecule?
Its value is 6.96 g/100 plantlings.

What about the “Mass, wet, root, + % to control” value [5] of the same molecule?
Its value is 8%.

And the “Mass, wet, sprout” value [5]?
The value was 6.29 g/100 plantlings.

And the “Mass, wet, sprout, + % to control” value [5]?
The value was 11%.

What about the “Length, root” value [6] of the same molecule?
The value was 5.2 cm.

What about the “Length, root, + % to control” value [6] of the same molecule?
Its value is 11%.

What about the “Length, sprout” value [6] of the same molecule?
Its value is 3.6 cm.

What about the “Length, sprout, + % to control” value [6] of the same molecule?
The value was 9%.

What about the “Mass, dry, root” value [6] of the same molecule?
The value was 1.10 g/100 plantlings.

What about the “Mass, dry, root, + % to control” value [6] of the same molecule?
Its value is 6%.

And the “Mass, dry, sprout” value [6]?
The value was 0.97 g/100 plantlings.

What about the “Mass, dry, sprout, + % to control” value [6] of the same molecule?
Its value is 13%.

What about the “Mass, wet, root” value [6] of the same molecule?
The value was 6.81 g/100 plantlings.

What about the “Mass, wet, root, + % to control” value [6] of the same molecule?
Its value is 6%.

And the “Mass, wet, sprout” value [6]?
Its value is 5.93 g/100 plantlings.

And the “Mass, wet, sprout, + % to control” value [6]?
The value was 4%.

And the “Length, root” value [7]?
The value was 4.8 cm.

And the “Length, root, + % to control” value [7]?
Its value is 2%.

What about the “Length, sprout” value [7] of the same molecule?
The value was 3.5 cm.

What about the “Length, sprout, + % to control” value [7] of the same molecule?
The value was 6%.

And the “Mass, dry, root” value [7]?
Its value is 0.93 g/100 plantlings.

And the “Mass, dry, root, + % to control” value [7]?
Its value is −10.5%.

What about the “Mass, dry, sprout” value [7] of the same molecule?
The value was 0.89 g/100 plantlings.

And the “Mass, dry, sprout, + % to control” value [7]?
The value was 3%.

What about the “Mass, wet, root” value [7] of the same molecule?
Its value is 6.47 g/100 plantlings.

What about the “Mass, wet, root, + % to control” value [7] of the same molecule?
Its value is 1%.

And the “Mass, wet, sprout” value [7]?
Its value is 5.71 g/100 plantlings.

What about the “Mass, wet, sprout, + % to control” value [7] of the same molecule?
Its value is 0.5%.

And the “Length, root, + % to control” value (corn, 1·10^−8% solution)?
The value was 25.5%.

And the “Length, sprout, + % to control” value (corn, 1·10^−8% solution)?
The value was 21%.

What about the “Mass, dry, root, + % to control” value (corn, 1·10^−8% solution) of the same molecule?
The value was 31%.

And the “Mass, dry, sprout, + % to control” value (corn, 1·10^−8% solution)?
Its value is 31%.

What about the “Mass, wet, root, + % to control” value (corn, 1·10^−8% solution) of the same molecule?
Its value is 27%.

And the “Mass, wet, sprout, + % to control” value (corn, 1·10^−8% solution)?
Its value is 38%.
